According to ChEMBL document CHEMBL5291721, “A preclinical secondary pharmacology resource illuminates target-adverse drug reaction associations of marketed drugs” (Nat Commun, 2023):

How the values were obtained:
[1] = biological target: T1, Progesterone receptor (Homo sapiens, UniProt P06401); type: functional
T1 sequence (P06401 whole entry): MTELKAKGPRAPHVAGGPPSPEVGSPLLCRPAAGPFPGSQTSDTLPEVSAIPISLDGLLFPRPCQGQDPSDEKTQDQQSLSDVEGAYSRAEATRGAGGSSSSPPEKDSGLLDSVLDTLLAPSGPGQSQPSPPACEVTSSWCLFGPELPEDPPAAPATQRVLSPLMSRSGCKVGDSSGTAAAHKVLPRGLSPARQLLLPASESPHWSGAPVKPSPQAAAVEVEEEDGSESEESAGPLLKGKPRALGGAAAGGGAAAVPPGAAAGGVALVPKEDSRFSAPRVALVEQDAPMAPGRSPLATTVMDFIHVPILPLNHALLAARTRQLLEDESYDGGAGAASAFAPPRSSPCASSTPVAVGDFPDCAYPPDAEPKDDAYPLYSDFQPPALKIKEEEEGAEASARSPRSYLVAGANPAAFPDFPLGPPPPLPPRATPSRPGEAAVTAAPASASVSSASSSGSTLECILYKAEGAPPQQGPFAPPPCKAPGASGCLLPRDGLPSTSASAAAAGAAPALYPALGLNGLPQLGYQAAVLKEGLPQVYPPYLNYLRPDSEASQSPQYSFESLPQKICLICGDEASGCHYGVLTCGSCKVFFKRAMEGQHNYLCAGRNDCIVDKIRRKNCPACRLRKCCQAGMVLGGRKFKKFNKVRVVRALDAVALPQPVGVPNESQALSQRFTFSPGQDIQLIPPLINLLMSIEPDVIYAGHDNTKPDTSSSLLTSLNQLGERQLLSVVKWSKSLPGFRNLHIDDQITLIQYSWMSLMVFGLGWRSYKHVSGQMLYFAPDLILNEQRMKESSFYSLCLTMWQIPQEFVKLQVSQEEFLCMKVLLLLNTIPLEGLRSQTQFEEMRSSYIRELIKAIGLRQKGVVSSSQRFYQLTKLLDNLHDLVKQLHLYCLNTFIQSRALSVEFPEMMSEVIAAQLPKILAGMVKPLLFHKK

[2] = biological target: T2, Neuropeptide Y receptor type 1 (Homo sapiens, UniProt P25929)
T2 sequence (P25929 whole entry): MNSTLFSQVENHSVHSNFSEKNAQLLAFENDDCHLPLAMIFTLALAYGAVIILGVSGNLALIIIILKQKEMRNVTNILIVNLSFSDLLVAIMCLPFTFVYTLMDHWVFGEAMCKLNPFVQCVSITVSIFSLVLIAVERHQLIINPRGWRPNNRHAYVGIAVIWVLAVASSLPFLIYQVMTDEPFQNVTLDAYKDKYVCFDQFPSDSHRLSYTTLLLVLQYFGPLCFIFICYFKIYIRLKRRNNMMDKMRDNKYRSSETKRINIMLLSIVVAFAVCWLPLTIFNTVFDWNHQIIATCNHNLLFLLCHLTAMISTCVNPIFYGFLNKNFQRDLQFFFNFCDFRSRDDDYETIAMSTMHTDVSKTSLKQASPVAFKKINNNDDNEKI

[3] = biological target: Vasopressin V2 receptor (Homo sapiens, UniProt P30518)
[4] = biological target: 5-hydroxytryptamine receptor 2B (Homo sapiens, UniProt P41595); type: functional, cell-based
[5] = biological target: Sodium-dependent serotonin transporter (Homo sapiens, UniProt P31645)
[6] = biological target: Cannabinoid receptor 1 (Homo sapiens, UniProt P21554); type: functional, cell-based
[7] = biological target: Neuronal acetylcholine receptor subunit alpha-4 (Homo sapiens, UniProt P43681)
[8] = biological target: T3, Amine oxidase [flavin-containing] A (Homo sapiens, UniProt P21397); type: functional
T3 sequence (P21397 whole entry): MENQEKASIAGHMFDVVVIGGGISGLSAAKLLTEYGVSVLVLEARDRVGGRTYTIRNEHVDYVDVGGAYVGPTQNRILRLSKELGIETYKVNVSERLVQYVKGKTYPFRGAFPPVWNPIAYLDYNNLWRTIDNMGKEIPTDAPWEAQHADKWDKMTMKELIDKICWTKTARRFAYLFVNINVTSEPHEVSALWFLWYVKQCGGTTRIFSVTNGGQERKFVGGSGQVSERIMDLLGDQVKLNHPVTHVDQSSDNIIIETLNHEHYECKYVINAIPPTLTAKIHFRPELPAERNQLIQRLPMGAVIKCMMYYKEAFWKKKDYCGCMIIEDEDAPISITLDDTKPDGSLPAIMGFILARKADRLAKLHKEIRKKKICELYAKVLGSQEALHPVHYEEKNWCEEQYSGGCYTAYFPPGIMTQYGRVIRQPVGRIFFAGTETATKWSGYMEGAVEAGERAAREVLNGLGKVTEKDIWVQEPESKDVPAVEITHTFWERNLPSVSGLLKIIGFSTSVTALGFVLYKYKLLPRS

[9] = biological target: T4, Thromboxane A2 receptor (Homo sapiens, UniProt P21731)
T4 sequence (P21731 whole entry): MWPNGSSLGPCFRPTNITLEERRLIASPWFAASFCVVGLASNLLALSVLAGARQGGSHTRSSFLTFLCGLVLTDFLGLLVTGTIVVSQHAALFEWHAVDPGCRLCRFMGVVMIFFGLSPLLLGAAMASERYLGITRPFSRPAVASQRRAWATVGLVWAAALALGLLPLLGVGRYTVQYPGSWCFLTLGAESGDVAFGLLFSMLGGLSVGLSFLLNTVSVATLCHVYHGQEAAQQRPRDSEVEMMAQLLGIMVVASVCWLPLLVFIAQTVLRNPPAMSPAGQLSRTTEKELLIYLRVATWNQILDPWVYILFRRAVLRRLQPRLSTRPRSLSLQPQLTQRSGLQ

[10] = biological target: Delta-type opioid receptor (Homo sapiens, UniProt P41143)
Also: assay procedure not described here.

Neuronal acetylcholine receptor subunit alpha-4, sequence (P43681 whole entry): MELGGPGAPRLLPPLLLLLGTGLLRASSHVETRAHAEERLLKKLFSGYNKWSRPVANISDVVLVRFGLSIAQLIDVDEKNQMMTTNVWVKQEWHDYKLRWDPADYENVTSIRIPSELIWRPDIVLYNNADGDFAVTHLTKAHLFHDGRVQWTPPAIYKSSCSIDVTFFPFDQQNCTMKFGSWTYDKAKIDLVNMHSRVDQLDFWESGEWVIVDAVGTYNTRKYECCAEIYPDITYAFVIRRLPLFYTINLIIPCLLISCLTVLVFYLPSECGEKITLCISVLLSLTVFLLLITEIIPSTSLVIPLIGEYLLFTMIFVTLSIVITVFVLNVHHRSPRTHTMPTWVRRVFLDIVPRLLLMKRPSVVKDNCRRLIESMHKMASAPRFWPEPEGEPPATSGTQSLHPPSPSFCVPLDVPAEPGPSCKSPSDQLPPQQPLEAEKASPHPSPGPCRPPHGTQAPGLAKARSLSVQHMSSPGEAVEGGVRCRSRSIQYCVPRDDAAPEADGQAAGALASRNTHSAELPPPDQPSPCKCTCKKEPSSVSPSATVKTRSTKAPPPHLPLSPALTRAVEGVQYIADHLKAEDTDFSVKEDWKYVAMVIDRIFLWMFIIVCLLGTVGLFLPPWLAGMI
5-hydroxytryptamine receptor 2B, sequence (P41595 whole entry): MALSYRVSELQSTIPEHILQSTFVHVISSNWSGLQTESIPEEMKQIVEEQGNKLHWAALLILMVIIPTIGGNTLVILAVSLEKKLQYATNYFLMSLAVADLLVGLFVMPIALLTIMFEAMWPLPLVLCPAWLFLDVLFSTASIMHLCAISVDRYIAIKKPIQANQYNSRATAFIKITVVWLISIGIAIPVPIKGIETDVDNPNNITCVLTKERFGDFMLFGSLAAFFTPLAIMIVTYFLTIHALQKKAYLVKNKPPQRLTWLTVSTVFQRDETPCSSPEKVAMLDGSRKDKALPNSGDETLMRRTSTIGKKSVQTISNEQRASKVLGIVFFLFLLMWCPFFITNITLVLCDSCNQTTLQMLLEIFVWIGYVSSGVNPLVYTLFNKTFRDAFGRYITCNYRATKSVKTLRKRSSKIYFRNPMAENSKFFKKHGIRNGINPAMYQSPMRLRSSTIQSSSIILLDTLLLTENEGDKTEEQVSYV
Sodium-dependent serotonin transporter, sequence (P31645 whole entry): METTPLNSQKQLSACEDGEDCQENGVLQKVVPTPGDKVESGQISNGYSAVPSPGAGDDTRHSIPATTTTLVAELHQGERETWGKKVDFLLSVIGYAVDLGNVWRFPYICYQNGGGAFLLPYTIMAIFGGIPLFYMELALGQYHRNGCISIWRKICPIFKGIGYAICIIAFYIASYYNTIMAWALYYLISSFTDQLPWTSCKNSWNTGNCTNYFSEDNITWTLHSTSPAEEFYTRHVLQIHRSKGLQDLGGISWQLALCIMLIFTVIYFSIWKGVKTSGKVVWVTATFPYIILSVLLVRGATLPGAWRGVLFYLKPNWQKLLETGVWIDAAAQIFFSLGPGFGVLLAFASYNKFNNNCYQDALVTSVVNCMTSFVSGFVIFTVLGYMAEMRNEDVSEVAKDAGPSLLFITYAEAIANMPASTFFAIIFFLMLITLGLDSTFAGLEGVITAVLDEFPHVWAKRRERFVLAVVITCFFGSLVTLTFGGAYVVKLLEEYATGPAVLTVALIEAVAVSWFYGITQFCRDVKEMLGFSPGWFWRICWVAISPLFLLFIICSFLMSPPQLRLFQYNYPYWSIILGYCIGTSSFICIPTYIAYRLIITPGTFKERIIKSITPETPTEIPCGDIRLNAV
Vasopressin V2 receptor, sequence (P30518 whole entry): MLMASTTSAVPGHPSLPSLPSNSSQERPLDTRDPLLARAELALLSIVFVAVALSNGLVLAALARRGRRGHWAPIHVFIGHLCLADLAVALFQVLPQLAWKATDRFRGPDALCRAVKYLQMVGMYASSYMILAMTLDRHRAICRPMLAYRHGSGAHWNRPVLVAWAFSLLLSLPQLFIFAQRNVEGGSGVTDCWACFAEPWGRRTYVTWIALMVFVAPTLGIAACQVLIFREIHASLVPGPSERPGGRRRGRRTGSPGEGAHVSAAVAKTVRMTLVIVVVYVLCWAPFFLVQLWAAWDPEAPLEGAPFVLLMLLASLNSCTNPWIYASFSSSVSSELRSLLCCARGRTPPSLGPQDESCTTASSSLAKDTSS
Delta-type opioid receptor, sequence (P41143 whole entry): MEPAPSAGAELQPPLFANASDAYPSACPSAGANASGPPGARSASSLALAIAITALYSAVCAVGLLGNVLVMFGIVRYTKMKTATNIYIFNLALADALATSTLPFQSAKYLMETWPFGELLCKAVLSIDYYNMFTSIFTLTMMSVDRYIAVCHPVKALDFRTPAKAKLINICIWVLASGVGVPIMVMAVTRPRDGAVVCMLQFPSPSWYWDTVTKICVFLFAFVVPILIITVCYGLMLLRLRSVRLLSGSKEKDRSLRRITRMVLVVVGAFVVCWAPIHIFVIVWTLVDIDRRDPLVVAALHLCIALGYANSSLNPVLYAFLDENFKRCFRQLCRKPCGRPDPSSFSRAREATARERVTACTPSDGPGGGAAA
Cannabinoid receptor 1, sequence (P21554 whole entry): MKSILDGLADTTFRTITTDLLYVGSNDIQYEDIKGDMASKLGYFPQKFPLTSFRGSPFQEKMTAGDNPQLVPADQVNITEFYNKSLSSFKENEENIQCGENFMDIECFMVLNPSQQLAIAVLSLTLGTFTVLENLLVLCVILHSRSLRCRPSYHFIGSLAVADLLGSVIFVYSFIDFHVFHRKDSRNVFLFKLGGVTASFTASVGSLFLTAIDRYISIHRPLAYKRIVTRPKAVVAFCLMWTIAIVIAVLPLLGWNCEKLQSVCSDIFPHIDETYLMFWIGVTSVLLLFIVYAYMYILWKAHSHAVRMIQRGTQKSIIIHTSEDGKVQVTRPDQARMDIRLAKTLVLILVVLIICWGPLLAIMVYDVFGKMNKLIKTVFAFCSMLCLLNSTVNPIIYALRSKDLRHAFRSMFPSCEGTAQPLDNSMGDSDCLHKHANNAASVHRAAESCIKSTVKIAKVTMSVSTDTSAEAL

With NS(=O)(=O)c1ccc(N2CCCCS2(=O)=O)cc1 the AC50 [1] was > 30 µM, the AC50 [2] was > 30 µM and the AC50 [3] was > 30 µM. The AC50 [4] was > 30 µM, the AC50 [5] was > 30 µM and the AC50 [6] was > 30 µM. The AC50 [7] was > 30 µM, the AC50 [8] was > 30 µM and the AC50 [9] was > 30 µM. For the same molecule, the AC50 [10] was > 30 µM.
CC(=O)Oc1cccc2c1C(=O)c1c(OC(C)=O)cc(C(=O)O)cc1C2=O [DIACEREIN] was tested, and the AC50 [1] was > 30 µM, the AC50 [2] was > 30 µM and the AC50 [3] was > 30 µM. The AC50 [4] was > 10 µM, the AC50 [5] was 23 µM and the AC50 [6] was > 30 µM. For the same molecule, the AC50 [7] was 27 µM, the AC50 [8] was > 30 µM and the AC50 [9] was > 30 µM. The AC50 [10] was > 30 µM.
CCCCOC(=O)C(=O)Nc1cccc(-c2nnn[nH]2)c1 [TAZANOLAST] was tested, and the AC50 [1] was > 30 µM, the AC50 [2] was > 30 µM and the AC50 [3] was > 30 µM. For the same molecule, the AC50 [4] was > 30 µM, the AC50 [5] was > 30 µM and the AC50 [6] was > 30 µM. For the same molecule, the AC50 [7] was > 30 µM, the AC50 [8] was > 30 µM and the AC50 [9] was > 30 µM. The AC50 [10] was > 30 µM.
With COc1ccc(C(Cl)=C(c2ccc(OC)cc2)c2ccc(OC)cc2)cc1 [CHLOROTRIANISENE] the AC50 [1] was > 30 µM, the AC50 [2] was > 30 µM and the AC50 [3] was > 30 µM. For the same molecule, the AC50 [4] was > 30 µM, the AC50 [5] was > 30 µM and the AC50 [6] was > 30 µM. For the same molecule, the AC50 [7] was > 30 µM, the AC50 [8] was > 30 µM and the AC50 [9] was > 10 µM. The AC50 [10] was > 30 µM.
With CO/N=C(\C(=O)N[C@@H]1C(=O)N2C(C(=O)[O-])=C(C[n+]3ccc(N)n3CCO)CS[C@H]12)c1csc(N)n1 [CEFOSELIS] the AC50 [1] was > 30 µM, the AC50 [2] was > 30 µM and the AC50 [3] was > 30 µM. The AC50 [4] was > 30 µM, the AC50 [5] was > 30 µM and the AC50 [6] was > 30 µM. For the same molecule, the AC50 [7] was > 30 µM, the AC50 [8] was > 30 µM and the AC50 [9] was > 30 µM. The AC50 [10] was > 30 µM.
With CC1=C(/C=C/C(C)=C/C=C/C(C)=C/C(=O)Oc2c(C)c(C)c3c(c2C)CCC(C)(CCCC(C)CCCC(C)CCCC(C)C)O3)C(C)(C)CCC1 (stereo not given) [TRETINOIN TOCOFERIL] the AC50 [1] was > 30 µM, the AC50 [2] was > 30 µM and the AC50 [3] was > 30 µM. For the same molecule, the AC50 [4] was > 30 µM, the AC50 [5] was > 30 µM and the AC50 [6] was > 30 µM. For the same molecule, the AC50 [7] was > 30 µM, the AC50 [8] was > 30 µM and the AC50 [9] was > 30 µM. The AC50 [10] was > 30 µM.
With C=C(c1ccccc1OCc1cccc(Cl)c1)n1ccnc1 [CROCONAZOLE] the AC50 [1] was > 30 µM, the AC50 [2] was > 30 µM and the AC50 [3] was > 30 µM. The AC50 [4] was > 10 µM, the AC50 [5] was 16.8 µM and the AC50 [6] was 15 µM. For the same molecule, the AC50 [7] was > 10 µM, the AC50 [8] was > 10 µM and the AC50 [9] was 16.2 µM. The AC50 [10] was > 30 µM.
For CN1CCCN=C1/C=C/c1cccc(O)c1 [OXANTEL], the AC50 [1] was > 30 µM, the AC50 [2] was > 30 µM and the AC50 [3] was > 30 µM. The AC50 [4] was > 30 µM, the AC50 [5] was > 30 µM and the AC50 [6] was > 30 µM. The AC50 [7] was 7.2 µM, the AC50 [8] was 21 µM and the AC50 [9] was > 30 µM. The AC50 [10] was > 30 µM.
